Laboratory results as given in patent US20030199017A1, “Method for releasing a product comprising chemical oxidation, method for detecting said product and uses thereof” (Proteus, priority 2000, published 2003).

Legend:
[1] = molecular target: T1, Candida antarctica lipase (Moesziomyces antarcticus, UniProt P41365); assay: Candida antarctica lipase activity based on temperature (release of para-nitrophenol, colorimetry at 414 nm); format: biochemical; conditions: PIPES buffer 0.1 M pH 7, 40 minutes
T1 sequence (P41365 26-342): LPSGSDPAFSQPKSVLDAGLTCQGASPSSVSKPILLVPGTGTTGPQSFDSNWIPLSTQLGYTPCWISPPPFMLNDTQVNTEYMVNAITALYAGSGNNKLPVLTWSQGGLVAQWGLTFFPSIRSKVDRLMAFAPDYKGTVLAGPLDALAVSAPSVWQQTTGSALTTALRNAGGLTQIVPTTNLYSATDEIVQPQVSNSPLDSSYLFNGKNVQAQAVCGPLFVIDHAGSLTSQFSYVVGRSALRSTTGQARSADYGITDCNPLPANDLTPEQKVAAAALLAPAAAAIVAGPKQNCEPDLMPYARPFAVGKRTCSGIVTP
Protocol: (§1) The hydrolytic activity of the Candida antarctica lipase was tested on 2 substrates: 2-hydroxy-4-p-nitrophenyl-butyl-decanoate and p-nitro-phenylbutyrate. The lipase activity is detected after hydrolysis of ester functions of substrates that produce the release (direct or indirect) of yellow-colored para-nitrophenol that is measured by colorimetry at 414 nm. The tests were carried out at different temperatures and pH.
(§2) The stock solutions of 2-hydroxy-4-p-nitrophenyl-butyl-decanoate and para-nitrophenolbutyrate (SIGMA) are prepared at the concentration of 20 mmol respectively in acetonitrile and isopropanol. The concentration of lipase B that is used is 0.01 mg/ml in a phosphate buffer (100 mmol, pH 7).
(§3) 74 μl of PIPES buffer (100 mmol, pH 7) and 10 μl of a lipase solution at 0.01 mg/ml are added to 13.6 μmol of 2-hydroxy-4-p-nitrophenyl-butyl-decanoate. The reaction is incubated in a water bath for 40 minutes at 50, 60, 70, 80 and 95° C. The samples are then removed from the water bath. Then, 40 μl of NaIO4 (100 mmol) and 4 μl of BSA (50 mg/ml) are added to the mixture. The pH of the solution is then adjusted to 10 by adding 40 μl of an Na2CO3 solution at 0.2 M. The para-nitrophenol that is released is then measured with a colorimeter at 414 nm.
(§4) 74 μl of PIPES buffer (100 mmol, pH 7) and 10 μl of a lipase solution at 0.01 mg/ml are added to 13.6 μmol of para-nitrophenylbutyrate. The reaction is incubated in a water bath for 40 minutes at 50, 60, 70, 80 and 95° C. The samples are then removed from the water bath, and the pH of the solution is adjusted to 10 with a 0.2 M Na2CO3 solution. The released para-nitrophenol is then measured with a calorimeter at 414 nm.
(§5) The activity of the lipase based on the incubation temperature was measured by using 2-hydroxy-4-p-nitrophenyl-butyl-decanoate and the para-nitrophenylbutyrate commercial substrate. […] The activities are expressed in %. The enzymatic reactions were carried out in the PIPES buffer (0.1 M, pH 7) at 50, 60, 70, 80 and 95° C. for 40 minutes. A negative control without enzyme was also carried out by using the same experimental conditions.

[2] = negative control without enzyme, pH series (para-nitrophenol released from the substrate); format: physicochemical; conditions: 40 minutes, no enzyme
Protocol: (§6) 74 μl of buffer at the desired pH (100 mmol) and 10 μl of a lipase solution at 0.01 mg/ml are added to 13.6 μmol of para-nitrophenylbutyrate. The reaction is incubated in a water bath for 40 minutes at 60° C. The samples are then removed from the water bath, and the pH of the solution is adjusted to 10 with a 0.2 M Na2CO3 solution. The para-nitrophenol that is released is then measured with a colorimeter at 414 nm.
(§7) The hydrolytic activity of the lipase based on the pH of the solution was also measured. […] The activities are expressed in %. The enzymatic reactions were incubated at 60° C. for 40 minutes at pH 3, 4, 5, 6.5, 7 and 8. A negative control without enzyme was also carried out by using the same experimental conditions.

[3] = negative control without enzyme, temperature series (para-nitrophenol released from the substrate); format: physicochemical; conditions: PIPES buffer 0.1 M pH 7, 40 minutes, no enzyme
Protocol: as §3
A negative control without enzyme was carried out under the same experimental conditions.
as §4, §5

[4] = molecular target: T1, Candida antarctica lipase; assay: Candida antarctica lipase activity based on the pH of the solution (release of para-nitrophenol, 414 nm); format: biochemical; conditions: 40 minutes
Protocol: as §1, §2
The enzymatic activity of the Candida antarctica lipase was carried out at different pH levels by using buffers (100 mmol) listed in Table VII below.
74 μl of buffer at the desired pH (100 mmol) and 10 μl of a lipase solution at 0.01 mg/ml are added to 13.6 μmol of 2-hydroxy-4-p-nitrophenyl-butyl-decanoate. The reaction is incubated in a water bath for 40 minutes at 60° C. The samples are then removed from the water bath. Then, 40 μl of NaIO4 (100 mmol) and 4 μl of BSA (50 mg/ml) are added to the mixture. The pH of the solution is then adjusted to 10 by adding 40 μl of a solution of Na2CO3 at 0.2 M. The para-nitrophenol that is released is then measured with a calorimeter at 414 nm.
as §6, §7

[5] = stability of the substrates / oxidation by periodate in the presence of BSA; format: physicochemical; conditions: aqueous media
Source text: The oxidation of 1,2 diols and amino alcohols by periodate in an aqueous medium is a reaction that is well known to one skilled in the art. This reaction provides a purely chemical alternative for the conversion of alcohols into carbonyl groups in aqueous medium with a high chemoselectivity in the presence of other functional groups.
The substrates acetates 1, amide 5 and epoxide 6 are stable in the presence of periodate and BSA […] the aqueous media. […] Under optimized reaction conditions using 100 μm of substrate, 1 mmol of sodium periodate, 2 mg/ml of BSA in a borate buffer with a pH of 8.8, diol 2 is transformed into umbelliferone with a yield of 72% without observable secondary reactions. […] The oxidation of amino alcohol 6 takes place with a yield of 85% under the same conditions.

SMILES | stability in the presence of periodate and BSA [5] | activity of the Candida antarctica lipase (Lipase B) ([1]; 50° C.) | activity of the Candida antarctica lipase (Lipase B) ([1]; 60° C.) | activity of the Candida antarctica lipase (Lipase B) ([1]; 70° C.) | activity of the Candida antarctica lipase (Lipase B) ([1]; 80° C.) | activity of the Candida antarctica lipase (Lipase B) ([1]; 95° C.) | activity signal Without enzyme ([2]; pH 3, 60° C.) | activity signal Without enzyme ([2]; pH 4, 60° C.) | activity signal Without enzyme ([2]; pH 5, 60° C.) | activity signal Without enzyme ([2]; pH 6.5, 60° C.) | activity signal Without enzyme ([2]; pH 7, 60° C.) | activity signal Without enzyme ([2]; pH 8, 60° C.) | activity signal Without enzyme ([3]; 50° C.) | activity signal Without enzyme ([3]; 60° C.) | activity signal Without enzyme ([3]; 70° C.) | activity signal Without enzyme ([3]; 80° C.) | activity signal Without enzyme ([3]; 95° C.) | activity of the Candida antarctica lipase (Lipase B) ([4]; pH 3, 60° C.) | activity of the Candida antarctica lipase (Lipase B) ([4]; pH 4, 60° C.) | activity of the Candida antarctica lipase (Lipase B) ([4]; pH 5, 60° C.) | other results
CCCCCCCCCC(=O)OCC(O)CCc1ccc([N+](=O)[O-])cc1 (stereo not drawn) [2-hydroxy-4-p-nitrophenyl-butyl-decanoate] | – | 100% | 75.9% | 61.5% | 44.2% | 26.1% | 3.9% | 2.7% | 2.6% | 2.9% | 3.4% | 2.8% | 8.7% | 9.4% | 9.5% | 8.1% | 8.6% | 58.9% | 80.9% | 96.1% | activity of the Candida antarctica lipase (Lipase B) ([4]; pH 6.5, 60° C.): 100%; activity of the Candida antarctica lipase (Lipase B) ([4]; pH 7, 60° C.): 72%; activity of the Candida antarctica lipase (Lipase B) ([4]; pH 8, 60° C.): 40%
O=C(Cc1ccccc1)NCC(O)CCOc1ccc2ccc(=O)oc2c1 (stereo not drawn) [amide 5, 1-Phenylacetamido-4-(7-coumarinyloxy)-2-butanol] | stable | – | – | – | – | – | – | – | – | – | – | – | – | – | – | – | – | – | – | – | –
CCCC(=O)Oc1ccc([N+](=O)[O-])cc1 [p-Nitrophenylbutyrate, p-nitro-phenylbutyrate, reference compound] | – | 100% | 75.4% | 60.4% | 55.9% | 66.7% | 54.9% | 63.6% | 65.6% | 69.2% | 51.4% | 103.9% | 83.6% | 67.3% | 59.5% | 59.8% | 71.5% | 94.2% | 73% | 100% | activity of the Candida antarctica lipase (Lipase B) ([4]; pH 6.5, 60° C.): 79.5%; activity of the Candida antarctica lipase (Lipase B) ([4]; pH 7, 60° C.): 60.8%; activity of the Candida antarctica lipase (Lipase B) ([4]; pH 8, 60° C.): 103.9%

Continued, in another order:

stability in the presence of periodate and BSA [5] | SMILES | activity of the Candida antarctica lipase (Lipase B) ([1]; 50° C.) | activity of the Candida antarctica lipase (Lipase B) ([1]; 60° C.) | activity of the Candida antarctica lipase (Lipase B) ([1]; 70° C.) | activity of the Candida antarctica lipase (Lipase B) ([1]; 80° C.) | activity of the Candida antarctica lipase (Lipase B) ([1]; 95° C.) | activity signal Without enzyme ([2]; pH 3, 60° C.) | activity signal Without enzyme ([2]; pH 4, 60° C.) | activity signal Without enzyme ([2]; pH 5, 60° C.) | activity signal Without enzyme ([2]; pH 6.5, 60° C.) | activity signal Without enzyme ([2]; pH 7, 60° C.) | activity signal Without enzyme ([2]; pH 8, 60° C.) | activity signal Without enzyme ([3]; 50° C.) | activity signal Without enzyme ([3]; 60° C.) | activity signal Without enzyme ([3]; 70° C.) | activity signal Without enzyme ([3]; 80° C.) | activity signal Without enzyme ([3]; 95° C.) | activity of the Candida antarctica lipase (Lipase B) ([4]; pH 3, 60° C.) | activity of the Candida antarctica lipase (Lipase B) ([4]; pH 4, 60° C.) | activity of the Candida antarctica lipase (Lipase B) ([4]; pH 5, 60° C.) | other results
release umbelliferone | NCC(O)CCOc1ccc2ccc(=O)oc2c1 (stereo not drawn) [amino alcohol 6, 1-Amino-4-(7-coumarinyloxy)-2-butanol] | – | – | – | – | – | – | – | – | – | – | – | – | – | – | – | – | – | – | – | –
release umbelliferone | O=c1ccc2ccc(OCC[C@H](O)CO)cc2o1 [diol 2, (S)-4-(7-coumarinyloxy)-1,2-butanediol] | – | – | – | – | – | – | – | – | – | – | – | – | – | – | – | – | – | – | – | –
stable | O=c1ccc2ccc(OCC[C@H]3CO3)cc2o1 [epoxide 6, (S)-4-(7-coumarinyloxy)-1,2-epoxybutane] | – | – | – | – | – | – | – | – | – | – | – | – | – | – | – | – | – | – | – | –
